This is an account of results in ChEMBL document CHEMBL4270560, “Novel curcumin analogue hybrids: Synthesis and anticancer activity” (Eur J Med Chem, 2018).

Test [1] relates to SGC-7901. Kind of test: Antiproliferative activity against human SGC7901 cells after 48 hrs by MTT assay. The test is classed as functional, cell-based. The settings on record: SGC-7901, 48 h.
The next test relates to MGC-803. The test can be described thus: Antiproliferative activity against human MGC803 cells after 48 hrs by MTT assay. The format is functional, cell-based. The settings on record: MGC-803, 48 h.
The subject of another test is SMMC-7721. Kind of test: Antiproliferative activity against human SMMC7721 cells after 48 hrs by MTT assay. The settings on record: SMMC-7721, 48 h. The format is functional, cell-based.
Another test deals with U-87 MG. The test can be described thus: Antiproliferative activity against human U87 cells after 48 hrs by MTT assay. The test is classed as functional, cell-based, U-87MG ATCC.
The subject of test [2] is SGC-7901. The test can be described thus: Induction of mitochondrial membrane depolarization in human SGC7901 cells assessed as cells with mitochondrial membrane potential loss after 48 hrs by JC-1 staining based flow cytometric analysis (reference value: 9.29%). The test is classed as functional.
The subject of test [3] is SGC-7901. Kind of test: Induction of mitochondrial membrane depolarization in human SGC7901 cells assessed as cells with intact mitochondrial membrane potential after 48 hrs by JC-1 staining based flow cytometric analysis (reference value: 87.3%). The format is functional.

Consider `COc1cc(OC)c2c(=O)c(OCCCCOc3ccccc3/C=C/C(=O)/C=C/c3cccs3)c(-c3cc(OC)c(OC)c(OC)c3)oc2c1`, for which the IC50 in the test on SGC-7901 [1] worked out at 26.5 µM; with MGC-803, 20.5 µM; in the test with SMMC-7721, 14.9 µM; with U-87 MG it was 21.1 µM.

With `O=C(/C=C/c1ccc(Oc2cc(=O)oc3ccccc23)cc1)/C=C/c1ccccn1`, the half-inhibitory concentration (IC50) with SGC-7901 [1] stood at 25.2 µM; in the test on MGC-803, 19.4 µM; with SMMC-7721, 35.4 µM; in the test on U-87 MG, 50.8 µM.

Take `COc1cc(OC)c2c(=O)c(OCCCOc3ccccc3/C=C/C(=O)/C=C/c3cccc([N+](=O)[O-])c3)c(-c3cc(OC)c(OC)c(OC)c3)oc2c1`: the IC50 with SGC-7901 [1] turned out to be 5.4 µM; in the test with MGC-803 it was 5.73 µM; in the test on SMMC-7721, 9.2 µM; in the test on U-87 MG, 7.92 µM.

Take `COc1cc(OC)c2c(=O)c(OCCCOc3ccccc3/C=C/C(=O)/C=C/c3scnc3C)c(-c3cc(OC)c(OC)c(OC)c3)oc2c1`: the IC50 in the test on SGC-7901 [1] was found to be 4.78 µM; in the test on MGC-803, 5.57 µM; in the test with SMMC-7721, 7.21 µM; with U-87 MG, 9.63 µM.

Regarding `COc1ccc(/C=C/C(=O)/C=C/c2ccc(Oc3cc(=O)oc4ccccc34)cc2)cc1OC`, the IC50 in the test on SGC-7901 [1] and with MGC-803 was 49.4 µM throughout.

As to `COc1cc(OC)c2c(=O)c(OCCCCOc3ccccc3/C=C/C(=O)/C=C/c3ccco3)c(-c3cc(OC)c(OC)c(OC)c3)oc2c1`, the IC50 amounted to 8.98 µM in the test with SGC-7901 [1], 7.9 µM with MGC-803, 8.48 µM in the test on SMMC-7721 and 10.7 µM with U-87 MG.

Regarding `COc1cc(OC)c2c(=O)c(OCCCCOc3ccc(/C=C/C(=O)/C=C/c4ccccn4)cc3)c(-c3cc(OC)c(OC)c(OC)c3)oc2c1`, the IC50 in the test with SGC-7901 [1] stood at 2.41 µM; in the test with MGC-803, 1.96 µM; with SMMC-7721, 1.69 µM; in the test with U-87 MG, 4.69 µM.

Consider `COc1cc(OC)c2c(=O)c(OCCCCOc3ccccc3/C=C/C(=O)/C=C/c3ccc(Cl)cc3)c(-c3cc(OC)c(OC)c(OC)c3)oc2c1`, for which the IC50 with SGC-7901 [1] came to 9.15 µM; in the test with MGC-803, 18.6 µM; in the test on SMMC-7721 it was 41.7 µM; in the test on U-87 MG it was 21.1 µM.

Take `O=C(/C=C/c1ccc(Cl)cc1)/C=C/c1ccc(Oc2cc(=O)oc3ccccc23)cc1`: the IC50 was determined as 48.3 µM in the test on SGC-7901 [1] and 55.2 µM with MGC-803.

Regarding `N#CC(C#N)=NNc1cccc(Cl)c1` [CARBONYL CYANIDE M-CHLOROPHENYLHYDRAZONE], the Activity amounted to 64.6% in the test with SGC-7901 [2] and 27.7% in the test on SGC-7901 [3].

In the case of `COc1cc(OC)c2c(=O)c(OCCCCOc3ccc(/C=C/C(=O)/C=C/c4scnc4C)cc3)c(-c3cc(OC)c(OC)c(OC)c3)oc2c1`, the IC50 in the test on SGC-7901 [1] was 42 µM; in the test on MGC-803, 54.6 µM; with SMMC-7721 it was 65 µM; with U-87 MG, 58.7 µM.

For `COc1cc(OC)c2c(=O)c(OCCCCOc3ccccc3/C=C/C(=O)/C=C/c3cccc([N+](=O)[O-])c3)c(-c3cc(OC)c(OC)c(OC)c3)oc2c1`, the IC50 came out at 4.03 µM in the test with SGC-7901 [1], 5.06 µM with MGC-803, 7.31 µM with SMMC-7721 and 10 µM with U-87 MG.

On to `O=C(/C=C/c1ccc(Oc2cc(=O)oc3ccccc23)cc1)/C=C/c1cccnc1`, for which the IC50 turned out to be 17.4 µM in the test with SGC-7901 [1], 24.5 µM in the test with MGC-803, 33.4 µM in the test on SMMC-7721 and 37 µM in the test on U-87 MG.

In the case of `COc1cccc2c1C(=O)c1c(O)c3c(c(O)c1C2=O)C[C@@](O)(C(=O)CO)C[C@@H]3O[C@H]1C[C@H](N)[C@H](O)[C@H](C)O1` [DOXORUBICIN], the IC50 came to 0.87 µM with SGC-7901 [1], 0.4 µM in the test with MGC-803, 0.73 µM in the test on SMMC-7721 and 0.48 µM with U-87 MG.

Turning to `COc1cc(OC)c2c(=O)c(OCCCOc3ccc(/C=C/C(=O)/C=C/c4scnc4C)cc3)c(-c3cc(OC)c(OC)c(OC)c3)oc2c1`, the half-maximal inhibitory concentration (IC50) was 49.4 µM with SGC-7901 [1], 31.7 µM with MGC-803, 34.3 µM with SMMC-7721 and 40.4 µM with U-87 MG.
